Measurements reported in US9931372B2, “Synthetic apelin fatty acid conjugates with improved half-life” (Novartis AG, priority 2015, dated 2018).
Read-outs that look alike come from different tables or passages of the source. Bridge positions count the residues as written; N and C are the ends. Square brackets hold non-standard residues; d marks the D form. Peptide text beside a SMILES is read from it. * marks the point of attachment. PEG24 = NCCOCCOCCOCCOCCOCCOCCOCCOCCOCCOCCOCCOCCOCCOCCOCCOCCOCCOCCOCCOCCOCCOCCOCCOCCC(=O)O; Malonyl(C11H23,(CH2)10COOH) = CCCCCCCCCCCC(CCCCCCCCCCC(=O)O)(C(=O)O)C(=O)*; PEG12 = NCCOCCOCCOCCOCCOCCOCCOCCOCCOCCOCCOCCOCCC(=O)O; pGlu = O=C1CC[C@@H](C(=O)O)N1; PEG4 = NCCOCCOCCOCCOCCC(=O)O; Nle = CCCC[C@H](N)C(=O)O

How the values were obtained:
[1] = In vivo pharmacokinetic assessment via SC dosing; settings: mouse, C57/B6 mice, subcutaneous dosing, plasma, read-out: t½ (converted)
Description: Protocols and Data for the In Vivo Pharmacokinetic Assessment Via SC Dosing. Formulation, Dosing and Sample Acquisition: […]
Example 1 and example 4 were dissolved to 0.1 mg/ml concentration in 30% (w/v) PEG300 and 5% (w/v) dextrose in PBS. C57/B6 mice (˜20 weeks of age) were dosed with dissolved compound by subcutaneous (SC) injection into the flank (n=4 per compound). Injection volume was 10 ml/kg. Blood samples were withdrawn from the saphenous vein at 3 and 6 hours post-dose, as well as at 1, 2, 4, 7 and 10 days post dose. Blood samples were immediately centrifuged at 4000×g for 10 min. Plasma supernatant (10 μL) was transferred to a 96-well plate and frozen at −80 C until analysis.
C57/B6J mice (˜22 weeks of age) were dosed with dissolved compound by SC injection (n=4). Blood samples were withdrawn from the tail vein at 15, 30, 60 and 120 minutes post injection. These were immediately centrifuged and then plasma supernatant was transferred to a 96-well plate and frozen at −80 C until analysis.
Preparation of Samples for Bioanalysis:
A pre-weighed sample of each compound (1-3 mg) was obtained and dissolved to 1 mg/ml in DMSO. These were diluted serially in mouse plasma (BioReclamation) to final concentrations of 10,000, 5,000, 1,000, 500, 100, 50, 10, 5, and 1 ng/ml to make standard curve for analysis.
Plasma samples from PK studies were thawed and diluted to 25 μL total volume by addition of mouse plasma.
25 μL aliquots of each sample and standard curve sample were arranged on a 96-well plate.
150 μL acetonitrile containing 100 ng/ml glyburide as internal standard was added to each sample and the samples vortexed for 30 seconds. Samples were then centrifuged at 4000×g for 10 minutes. 125 μL supernatant was then transferred to a fresh 96-well plate. 50 μL of water was added and mixed by vortexing for 30 seconds.
LC/MS Bioanalysis (Agilent 1290):
Samples (10 μL) were transferred to an HPLC using a CTC PAL autosampler. The LC column was ACE C18 30×2.1 mm, 3.0 μm bead. […]

hAPJ = molecular target: T1, hAPJ (Homo sapiens, UniProt P35414); experiment: hAPJ Calcium flux assay; assay type: cell-based
T1 sequence (P35414 1-380): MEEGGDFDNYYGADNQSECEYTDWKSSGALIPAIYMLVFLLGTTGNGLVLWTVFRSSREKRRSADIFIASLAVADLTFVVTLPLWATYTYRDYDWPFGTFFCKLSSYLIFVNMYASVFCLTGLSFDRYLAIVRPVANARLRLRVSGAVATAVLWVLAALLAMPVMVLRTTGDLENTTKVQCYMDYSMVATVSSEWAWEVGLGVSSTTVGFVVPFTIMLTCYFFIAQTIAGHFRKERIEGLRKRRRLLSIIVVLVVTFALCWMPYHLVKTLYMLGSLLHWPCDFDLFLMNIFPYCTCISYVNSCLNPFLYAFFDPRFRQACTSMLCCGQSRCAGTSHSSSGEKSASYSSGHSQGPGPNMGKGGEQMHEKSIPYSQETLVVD
Description: Chem-5 APJ stable cells (Millipore # HTS068C) were plated in 384-well format with 10,000 cells/well in 25 ul growth media, then grown 24 hours in a 37° C. tissue culture incubator. One hour before the assay, 25 ul/well FLIPR Calcium 4 dye (Molecular Devices R8142) with 2.5 mM probenecid was added, and cells were incubated one hour in a 37° C. tissue culture incubator. Bioconjugates were solubilized in HBSS, HEPES & 0.1% BSA buffer, and serially-diluted 10-fold, from 50 uM to 5 pM, in triplicate. FLIPR Tetra was used to add bioconjugates to the cells with dye (1:5, for final bioconjugate concentrations ranging from 10 uM to 1 pM). FLIPR dye inside the cells emitted fluorescence after binding to calcium, while fluorescence from outside the cells was masked. Fluorescence was measured using 470-495 excitation and 515-575 emission wavelengths on the FLIPR Tetra. Readings were done for 3 minutes total, beginning 10 seconds before the bioconjugate addition. Maximum-minimum values were calculated and plotted for each bioconjugate concentration, and GraphPad prism software was used to calculate EC50 values at the curve inflection points, for calcium flux stimulation by bioconjugates.

[2] = Surrogate activity-based plasma stability assay; assay type: in vitro ADME; settings: rat
Text: Surrogate Activity-Based Plasma Stability Assay:
2) Calculate slope of value above and […]

[3] = Chem-5 APJ stable cells, FLIPR calcium flux, read-out: hAPJ Ca^2+ Flux EC50

| SMILES | half-life ([1]; 1 mg/kg) | EC50 (hAPJ; [3]) | half-life [2] | half-life [1] | EC50 (hAPJ) |
| --- | --- | --- | --- | --- | --- |
| CCCCCCCCCCCC(CCCCCCCCCCC(=O)O)(C(=O)O)C(=O)NCCOCCOCCOCCOCCOCCOCCOCCOCCOCCOCCOCCOCCOCCOCCOCCOCCOCCOCCOCCOCCOCCOCCOCCOCCC(=O)N[C@@H](CCC(N)=O)C(=O)N[C@@H](CCCNC(=N)N)C(=O)N1CCC[C@H]1C(=O)N[C@@H](CCCNC(=N)N)C(=O)N[C@@H](CC(C)C)C(=O)N[C@H]1CSSC[C@@H](C(=O)N[C@@H](Cc2ccccc2)C(=O)O)NC(=O)[C@H](CCCC)NC(=O)[C@@H]2CCCN2C(=O)CNC(=O)[C@H](CCCCN)NC(=O)[C@H](Cc2cnc[nH]2)NC1=O (stereo partly drawn) [Example 1, Fatty Acid-Linker#1Q-R-P-R-L-C*-H-K-G-P-(Nle)-C*-F (C6-C12 Disulfide Bridge)] ({Malonyl(C11H23,(CH2)10COOH)-PEG24}-QRPRLCHKGP[Nle]CF-OH; disulfide 6-12) | 43 h | 0.111 µM | > 16.7 h |  |  |
| CCCC[C@@H]1NC(=O)[C@@H]2CCCN2C(=O)CNC(=O)[C@H](CCCCN)NC(=O)[C@H](Cc2cnc[nH]2)NC(=O)[C@@H](NC(=O)[C@H](CC(C)C)NC(=O)[C@H](CCCNC(=N)N)NC(=O)[C@@H]2CCCN2C(=O)[C@H](CCCNC(=N)N)NC(=O)[C@@H]2CCC(=O)N2)CSSC[C@@H](C(=O)N[C@@H](Cc2ccccc2)C(=O)O)NC1=O [pE-R-P-R-L-C*-H-K-G-P-Nle-C*-F-OH, reference compound] ([pGlu]RPRLCHKGP[Nle]CF-OH; disulfide 6-12) |  |  | 2.2 h | 0.52 h | 0.001 µM |
| CCCCCCCCCCCC(CCCCCCCCCCC(=O)O)(C(=O)O)C(=O)NCCOCCOCCOCCOCCOCCOCCOCCOCCOCCOCCOCCOCCC(=O)N[C@@H](CCC(N)=O)C(=O)N[C@@H](CCCNC(=N)N)C(=O)N1CCC[C@H]1C(=O)N[C@@H](CCCNC(=N)N)C(=O)N[C@@H](CC(C)C)C(=O)N[C@H]1CSSC[C@@H](C(=O)N[C@@H](Cc2ccccc2)C(=O)O)NC(=O)[C@H](CCCC)NC(=O)[C@@H]2CCCN2C(=O)CNC(=O)[C@H](CCCCN)NC(=O)[C@H](Cc2cnc[nH]2)NC1=O (some centres unmarked) [Example 2] ({Malonyl(C11H23,(CH2)10COOH)-PEG12}-QRPRLCHKGP[Nle]CF-OH; disulfide 6-12) |  | 0.0848 µM | > 16.7 h |  |  |
| CCCCCCCCCCCC(CCCCCCCCCCC(=O)O)(C(=O)O)C(=O)NCCOCCOCCOCCOCCC(=O)N[C@@H](CCC(N)=O)C(=O)N[C@@H](CCCNC(=N)N)C(=O)N1CCC[C@H]1C(=O)N[C@@H](CCCNC(=N)N)C(=O)N[C@@H](CC(C)C)C(=O)N[C@H]1CSSC[C@@H](C(=O)N[C@@H](Cc2ccccc2)C(=O)O)NC(=O)[C@H](CCCC)NC(=O)[C@@H]2CCCN2C(=O)CNC(=O)[C@H](CCCCN)NC(=O)[C@H](Cc2cnc[nH]2)NC1=O (some centres unmarked) [Example 4] ({Malonyl(C11H23,(CH2)10COOH)-PEG4}-QRPRLCHKGP[Nle]CF-OH; disulfide 6-12) | 23 h | 0.158 µM | > 16.7 h |  |  |
